Test results taken from PubChem BioAssay (NCI).
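Growth conditions: 96-well plates. Treatment: test compound, 48 hours, 5 concentrations. Analysis: linear interpolation between bracketing concentrations; unreached endpoints set to highest concentration. At the GI50, growth is halved. TGI is the concentration that stops growth completely.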

What was measured:
Experiment in all cases: NCI anticancer screen, dose series, 48 h
786-0 renal = test system: 786-0 renal
A498 renal = test system: A498 renal
A549 NSCLC = test system: A549 NSCLC
BT-549 breast = test system: BT-549 breast
CCRF-CEM leukemia = test system: CCRF-CEM leukemia
COLO 205 colon = test system: COLO 205 colon
DU-145 prostate = test system: DU-145 prostate
EKVX NSCLC = test system: EKVX NSCLC
HCC-2998 colon = test system: HCC-2998 colon
HCT-116 colon = test system: HCT-116 colon
HCT-15 colon = test system: HCT-15 colon
HL-60(TB) leukemia = test system: HL-60(TB) leukemia
HOP-62 NSCLC = test system: HOP-62 NSCLC
HOP-92 NSCLC = test system: HOP-92 NSCLC
HS 578T breast = test system: HS 578T breast
HT29 colon = test system: HT29 colon
IGROV1 ovarian = test system: IGROV1 ovarian
K-562 leukemia = test system: K-562 leukemia
KM12 colon = test system: KM12 colon
LOX IMVI melanoma = test system: LOX IMVI melanoma
M14 melanoma = test system: M14 melanoma
MCF7 breast = test system: MCF7 breast
MDA-MB-231 breast = test system: MDA-MB-231 breast
MDA-MB-435 = test system: MDA-MB-435
MOLT-4 leukemia = test system: MOLT-4 leukemia
NCI-H226 lung = test system: NCI-H226 lung
NCI-H23 lung = test system: NCI-H23 lung
NCI-H460 lung = test system: NCI-H460 lung
NCI-H522 lung = test system: NCI-H522 lung
NCI/ADR-RES ovarian = test system: NCI/ADR-RES ovarian
OVCAR-3 ovarian = test system: OVCAR-3 ovarian
OVCAR-4 ovarian = test system: OVCAR-4 ovarian
OVCAR-5 ovarian = test system: OVCAR-5 ovarian
OVCAR-8 ovarian = test system: OVCAR-8 ovarian
PC-3 prostate = test system: PC-3 prostate
RPMI-8226 leukemia = test system: RPMI-8226 leukemia
RXF 393 renal = test system: RXF 393 renal
SF-268 CNS = test system: SF-268 CNS
SF-295 CNS = test system: SF-295 CNS
SF-539 CNS = test system: SF-539 CNS
SK-MEL-2 melanoma = test system: SK-MEL-2 melanoma
SK-MEL-28 melanoma = test system: SK-MEL-28 melanoma
SK-MEL-5 melanoma = test system: SK-MEL-5 melanoma
SK-OV-3 ovarian = test system: SK-OV-3 ovarian
SN12C renal = test system: SN12C renal
SNB-19 CNS = test system: SNB-19 CNS
SNB-75 CNS = test system: SNB-75 CNS
SR leukemia = test system: SR leukemia
SW-620 colon = test system: SW-620 colon
TK-10 renal = test system: TK-10 renal
U251 CNS = test system: U251 CNS
UACC-257 melanoma = test system: UACC-257 melanoma
UACC-62 melanoma = test system: UACC-62 melanoma
UO-31 renal = test system: UO-31 renal
T-47D breast = test system: T-47D breast

## CCCC[C@H](NC(=O)[C@H]1CCCN1C)C(=O)N(C)[C@H](C[C@@H](OC(C)=O)c1nc(C(=O)N[C@@H](Cc2ccccc2)C[C@H](C)C(=O)OCC)cs1)C(C)C
786-0 renal
  GI50: 0.0171 µM
  TGI: 9.96 µM
A498 renal
  GI50: 0.00714 µM
  TGI: 0.0841 µM
A549 NSCLC
  GI50: 0.0501 µM
  TGI: > 33.3 µM
BT-549 breast
  GI50: 0.0168 µM
  TGI: 0.447 µM
CCRF-CEM leukemia
  GI50: 0.0122 µM
  TGI: 6.41 µM
COLO 205 colon
  GI50: 0.0132 µM
  TGI: 0.0961 µM
DU-145 prostate
  GI50: 0.0137 µM
  TGI: > 33.3 µM
EKVX NSCLC
  GI50: 0.0591 µM
  TGI: > 33.3 µM
HCC-2998 colon
  GI50: 0.0113 µM
  TGI: 10.9 µM
HCT-116 colon
  GI50: 0.0125 µM
  TGI: > 33.3 µM
HCT-15 colon
  GI50: 0.0365 µM
  TGI: > 33.3 µM
HL-60(TB) leukemia
  GI50: 0.0058 µM
  TGI: 0.0253 µM
HOP-62 NSCLC
  GI50: 0.0439 µM
  TGI: > 33.3 µM
HOP-92 NSCLC
  GI50: 1.9 µM
  TGI: 32.7 µM
HS 578T breast
  GI50: 0.0186 µM
  TGI: 6.92 µM
HT29 colon
  GI50: 0.00974 µM
  TGI: 0.0414 µM
IGROV1 ovarian
  GI50: 0.0157 µM
  TGI: > 33.3 µM
K-562 leukemia
  GI50: 0.00726 µM
  TGI: > 33.3 µM
KM12 colon
  GI50: 0.0114 µM
  TGI: 18 µM
LOX IMVI melanoma
  GI50: 0.0173 µM
  TGI: 9.99 µM
M14 melanoma
  GI50: 0.0163 µM
  TGI: 3.77 µM
MCF7 breast
  GI50: < 0.00333 µM
  TGI: > 33.3 µM
MDA-MB-231 breast
  GI50: 0.018 µM
  TGI: 0.844 µM
MDA-MB-435
  GI50: < 0.00333 µM
  TGI: 0.00655 µM
MOLT-4 leukemia
  GI50: 0.0258 µM
  TGI: 15.5 µM
NCI-H226 lung
  GI50: 0.531 µM
  TGI: 16.4 µM
NCI-H23 lung
  GI50: 0.0594 µM
  TGI: > 33.3 µM
NCI-H460 lung
  GI50: 0.0105 µM
  TGI: 4.04 µM
NCI-H522 lung
  GI50: 0.00341 µM
  TGI: 0.0143 µM
NCI/ADR-RES ovarian
  GI50: 0.542 µM
  TGI: > 33.3 µM
OVCAR-3 ovarian
  GI50: 0.0083 µM
  TGI: 6.38 µM
OVCAR-4 ovarian
  GI50: 0.357 µM
  TGI: > 33.3 µM
OVCAR-5 ovarian
  GI50: 0.0642 µM
  TGI: > 33.3 µM
OVCAR-8 ovarian
  GI50: 0.036 µM
  TGI: > 33.3 µM
PC-3 prostate
  GI50: 0.00957 µM
  TGI: > 33.3 µM
RPMI-8226 leukemia
  GI50: 0.00399 µM
  TGI: 4.84 µM
RXF 393 renal
  GI50: 0.00745 µM
  TGI: 11.3 µM
SF-268 CNS
  GI50: 0.0217 µM
  TGI: 25.2 µM
SF-295 CNS
  GI50: 0.0139 µM
  TGI: 4.13 µM
SF-539 CNS
  GI50: 0.022 µM
  TGI: 0.241 µM
SK-MEL-2 melanoma
  GI50: 0.00613 µM
  TGI: 8.71 µM
SK-MEL-28 melanoma
  GI50: 0.029 µM
  TGI: 17.4 µM
SK-MEL-5 melanoma
  GI50: < 0.00333 µM
  TGI: 0.063 µM
SK-OV-3 ovarian
  GI50: 0.0969 µM
  TGI: > 33.3 µM
SN12C renal
  GI50: 0.0316 µM
  TGI: 8.41 µM
SNB-19 CNS
  GI50: 0.01 µM
  TGI: > 33.3 µM
SNB-75 CNS
  GI50: 0.0152 µM
  TGI: 8.92 µM
SR leukemia
  GI50: < 0.00333 µM
  TGI: 5.24 µM
SW-620 colon
  GI50: 0.0106 µM
  TGI: > 33.3 µM
TK-10 renal
  GI50: 6.88 µM
  TGI: > 33.3 µM
U251 CNS
  GI50: 0.0144 µM
  TGI: > 33.3 µM
UACC-257 melanoma
  GI50: 7.81 µM
  TGI: > 33.3 µM
UACC-62 melanoma
  GI50: 0.00489 µM
  TGI: > 33.3 µM
UO-31 renal
  GI50: 0.209 µM
  TGI: > 33.3 µM

## Nc1nc(Cl)cc(OCC2(O)CC(COC(=O)c3ccccc3)C2)n1 (stereo not drawn)
A549 NSCLC
  GI50: 67.8 µM
CCRF-CEM leukemia
  GI50: 47.9 µM
COLO 205 colon
  GI50: 46.6 µM
EKVX NSCLC
  GI50: 13.2 µM
HCT-116 colon
  GI50: 82.9 µM
HL-60(TB) leukemia
  GI50: 58.4 µM
HS 578T breast
  GI50: 46.6 µM
HT29 colon
  GI50: 70 µM
K-562 leukemia
  GI50: 40.3 µM
KM12 colon
  GI50: 30.6 µM
LOX IMVI melanoma
  GI50: 76.1 µM
MCF7 breast
  GI50: 47.7 µM
MDA-MB-231 breast
  GI50: 48.1 µM
MOLT-4 leukemia
  GI50: 26.9 µM
  TGI: 83.7 µM
NCI-H226 lung
  GI50: 81 µM
NCI-H23 lung
  GI50: 51.8 µM
NCI/ADR-RES ovarian
  GI50: 39.5 µM
OVCAR-3 ovarian
  GI50: 82.2 µM
OVCAR-4 ovarian
  GI50: 38.2 µM
OVCAR-8 ovarian
  GI50: 71 µM
RPMI-8226 leukemia
  GI50: 85.5 µM
SF-295 CNS
  GI50: 78.5 µM
SK-MEL-5 melanoma
  GI50: 37.3 µM
SNB-19 CNS
  GI50: 34.1 µM
SNB-75 CNS
  GI50: 53 µM
SR leukemia
  GI50: 32.1 µM
T-47D breast
  GI50: 30.7 µM
U251 CNS
  GI50: 76.1 µM
UO-31 renal
  GI50: 91.5 µM
